Test results taken from patent US6337348B1, “Oxy-vanadium (iv) complexes having spermicidal activity” (Parker Hughes Institute, priority 1998, dated 2002).

What was measured:
Format in all cases: cell-based
human sperm [1] = assay: Sperm immobilization assay (SIA), motility by CASA; settings: for EC50: read-out: EC50 (concentration that decreases the proportion of motile sperm by 50%), 3 hours incubation at 37° C., BWW-0.3% BSA, serial 2-fold dilutions 250 μM to 1.9 μM, mean of two experiments
Description: To evaluate the spermicidal effects of complexes of oxovanadium (IV), VO(phen), VO(phen)2, VO(Me2—phen), VO(Me2—phen)2, VO(Cl—phen), VO(Cl—phen)2], VO(bipy), VO(bipy)2, VO(Me2—bipy), VO(Me2—bipy)2, and VO(Br,OH—acph)2, a highly motile fraction of pooled donor sperm (N=5) was prepared by discontinuous (90−45%). Percoll gradient (Conception Technologies, San Diego, Calif.) centrifugation and the “swim-up” method as described previously (Aitken et al., 1989, Biol. Reprod. 40:183-197). All donor specimens were obtained after informed consent and in compliance with the guidelines of the Hughes Institutional Review Board. Motile sperm (≳10×10^6/ml) were suspended in 1 ml of Biggers, Whitten, and Whittingham's medium (BWW) containing 0.3% BSA (fraction V; Sigma Chemical Co., St. Louis, Mo.) in the presence and absence of serial 2-fold dilutions of test substance (250 μM−1.9 μM) in 0.25% dimethyl sulfoxide (DMSO). For each experiment, fresh stock solutions (100 mM) of vanadium compounds were prepared in DMSO. A corresponding volume of DMSO (0.25%) was added to control sperm suspension. After 3 hours of incubation at 37° C., the percentage of motile sperm was evaluated by computer-assisted sperm motion analysis (CASA) as described previously (Aitken et al., 1989, Supra). The percentages of motilities were compared with those of sham-treated control suspensions of motile sperm.
(§1) For CASA, 4 μl each of sperm suspension was loaded into two 20 μm Microcell chambers placed onto a counting chamber at 37° C. At least 5-8 fields per chamber were scanned for analysis using a Hamilton Thorne Integrated Visual Optical System (IVOS) version 10 instrument (Hamilton Thorne Research Inc., Danvers, Mass.). Each field was recorded for 30 seconds. The Hamilton Thorne computer calibrations were set at 30 frames at a frame rate of 30 images/seconds. Other settings were as follows: minimum contrast 8; minimum size 6; low-size gate, 1.0; high-size gate,2.9; low-intensity gate, 0.6; high-intensity gate, 1.4; phase-contrast illumination; low path velocity at 10 μm/seconds and threshold straightness at 80%; magnification factor, 1.95. The performance of the analyzer was periodically checked using the playback function.
Results for the various numerical sperm functional parameters are presented as mean±standard deviation (SD) values. Comparison between oxovanadium (IV) complex-treated and control sperm relative to sperm motility parameters and apoptosis were performed using paired, two-tailed Student's T-test. A p value of <0.05 was considered significant.

human sperm [2] = assay: FITC-Annexin V surface binding flow cytometry; settings: 100 μM, 12 hours, 37° C.
Description: In order to examine the expression of phosphatidyl serine on the sperm surface following oxovanadium (IV) complex exposure, surface binding of FITC-Annexin V was evaluated by flow cyotometry as described in Vermes et al., 1995, J. Immunol. Meth., […]:39-51. One ml aliquots of highly motile sperm (10^7) in triplicate were incubated in BWW−0.3% BSA at 37° C. for 12 hours with and without 100 μM of each of the oxovanadium (IV) complexes VO(phen), VO(phen)2, VO(Me2—phen), VO(Me2—phen)2, VO(Cl—phen), VO(Cl—phen)2, VO(bipy), VO(bipy)2, VO(Me2—bipy), VO(Me2—bipy)2, and VO(Br,OH—acph)2 in 0.1% DMSO. After exposure to these complexes, sperm were washed with 1% Tyrode's salt solution containing 1% BSA (1% TBSA), and the pellets were resuspended in the same medium. The sperm suspension was reacted for 30 minutes at room temperature with 6 μg/ml of FITC-conjugated recombinant human Annexin V (Caltag Laboratories, San Francisco, Calif.). After two washes in Tyrode's salt solution, sperm were resuspended in 1% TBSA containing 1 μg/ml propidium iodide (PI) and analyzed for surface-bound Annexin V and PI-permeability by quantitative flow cytometry using an argon laser for excitation of fluorescence. Annexin V and PI binding were simultaneously measured in oxovanadium (IV) complex-exposed and control sperm as described previously (de Lamirande et al., 1993, Fertil Seril 59:1291-1295). The percentages of sperm positive for Annexin V and PI were determined using the cutoff signals for membrane-intact motile sperm. Two separate experiments were performed to assess the surface expression of phosphatidyl serine following exposure of sperm to oxovanadium (IV) complexes.

human sperm [3] = assay: Kinetics of sperm immobilization (timed CASA); settings: for T½ of sperm immobilization (time for 50% motility loss): 200 μM, 37° C.
Description: To test the effect of duration of incubation on sperm immobilization in the presence of oxovanadium (IV) complexes, a motile fraction of sperm 10^7/ml) was incubated at 37° C. in 1 ml of BWW−0.3% BSA in the presence of 200 μM each of the complexes or 0.2% DMSO alone. At timed intervals (every 5 and 10 minutes) aliquots (4 μl) were transferred to two 20 μm Microcell (Conception Technologies) chambers, and sperm motility was assessed by CASA.
as §1

EC50 (human sperm [1]) [µM] | Annexin V positive sperm (%) (human sperm [2]) | T½ of sperm immobilization (time for 50% motility loss) (human sperm [3]) [s] | Annexin V positive sperm (%) (human sperm [2]; listed as VO(Cl—phen)2) | Compound | time of exposure to complete sperm motility loss (human sperm [3]) [min] | fold more potent than N-9 (spermicidal activity) (human sperm [1]; identical experimental conditions) [fold]
83 | 47 |  |  | (diaqua)(4,4′-dimethyl-2,2′-bipyridyl)oxovanadium (IV) sulfate [VO(Me2-bipy)] |  | 
118 | 36 |  |  | O.O.O=S(=O)([O-])[O-].[O]=[V+2].c1ccc(-c2ccccn2)nc1 [VO(bipy), (diaqua)(2,2′-bipyridyl)oxovanadium (IV) sulfate] |  | 
20.5 | 96 |  |  | Cc1ccnc2c1ccc1c(C)ccnc12.O.O.O=S(=O)([O-])[O-].[O]=[V+2] [VO(Me2-phen), (diaqua)(4,7-dimethyl-1,10-phenanthroline)oxovanadium (IV) sulfate] |  | 
72.5 | 78 |  |  | (aqua)bis(4,4′-dimethyl-2,2′-bipyridyl)oxovanadium (IV) sulfate [VO(Me2-bipy)2] |  | 
6.5 | 98 |  |  | O.O=S(=O)([O-])[O-].[O]=[V+2].c1cnc2c(c1)ccc1cccnc12.c1cnc2c(c1)ccc1cccnc12 [VO(phen)2, (aqua)bis(1,10-phenanthroline)oxovanadium (IV) sulfate] |  | 
13.4 | 95 | 38 |  | bis(5′-bromo-2′-hydroxyacetophenone)oxovanadium (IV) [VO(Br,OH-acph)2] | ≤ 2 | 
37 | 97 |  |  | O.O.O=S(=O)([O-])[O-].[O]=[V+2].c1cnc2c(c1)ccc1cccnc12 [VO(phen), (diaqua)(1,10-phenanthroline)oxovanadium (IV) sulfate] |  | 
39.1 | 90 |  |  | Clc1cc2cccnc2c2ncccc12.O.O.O=S(=O)([O-])[O-].[O]=[V+2] [VO(Cl-phen), (diaqua)(5-chloro-1,10-phenanthroline)oxovanadium (IV) sulfate] |  | 
5.5 | 99 | 438 | 99 | Clc1cc2cccnc2c2ncccc12.Clc1cc2cccnc2c2ncccc12.O.O=S(=O)([O-])[O-].[O]=[V+2] [VO(Cl-phen)2, (aqua)bis(5-chloro-1,10-phenanthroline)oxovanadium (IV) sulfate] | ≤ 10 | 14
47.9 | 17 |  |  | Cc1ccnc2c1ccc1c(C)ccnc12.Cc1ccnc2c1ccc1c(C)ccnc12.O.O=S(=O)([O-])[O-].[O-2].[V+4] [VO(Me2-phen)2, (aqua)bis(4,7-dimethyl-1,10-phenanthroline)oxovanadium (IV) sulfate] |  | 
35.3 | 26 |  |  | O.O=S(=O)([O-])[O-].[O-2].[V+4].c1ccc(-c2ccccn2)nc1.c1ccc(-c2ccccn2)nc1 [VO(bipy)2, (aqua)bis(2,2′-bipyridyl)oxovanadium (IV) sulfate] |  | 
